Source: ChEMBL document CHEMBL1157231, “Antibacterial compounds from Glycyrrhiza uralensis” (2006)

Test system: Streptococcus mutans
Test: Antibacterial activity against Streptococcus mutans ATCC 25175 after 16 to 20 hrs by NCCLS method
Type: functional

How did the Activity turn out when `COc1cc2occ(-c3ccc(O)cc3)c(=O)c2c(O)c1CC=C(C)C` [GANCAONIN G] was run?
The Activity was 125 µg/mL.

`COc1c(CC=C(C)C)c(O)cc2c1-c1oc3cc(O)c(CC=C(C)C)cc3c1CO2` [GLYCYRRHIZOL A] was tested. Which Activity did it give?
Its Activity is 1 µg/mL.

How did the Activity turn out when `COc1c2c(cc3oc(=O)c4c5ccc(O)cc5oc4c13)OC(C)(C)CC2` [ISOGLYCYROL] was run?
The Activity was 500 µg/mL.

Which Activity does the source give for `CC(C)=CCc1c(O)c(CC=C(C)C)c2occ(-c3ccc(O)cc3)c(=O)c2c1O` here?
The Activity was 2 µg/mL.

Which Activity does the source give for `COc1cc2oc(=O)c3c4ccc(O)cc4oc3c2c(OC)c1CC=C(C)C` here?
The Activity was 500 µg/mL.

For `COc1cc(O)cc2c1-c1oc3c4c(ccc3c1CO2)OC(C)(C)C=C4` [GLYCYRRHIZOL B], which Activity is on record?
The Activity was 32 µg/mL.
